Test results taken from patent US7638145B2, “Cultivated agarwood” (Regents of the University of Minnesota, priority 2001, dated 2009).

Assays:
Assay type in all cases: in vivo
[1] = tested on: Aquilaria trees; assay: Drill wounds treated with different compounds to stimulate agarwood production (Example 5); parameters: Area of discoloration: unit not given here; conditions: for effect on area of discoloration (in words): Example 5, at the concentrations tested; for Area of discoloration: approx 0.1-0.2 g per drill wound; for microscopic observations of cells around treated wounds: Example 5; for agarwood induction versus control wounds (in words): Example 5 conclusion
Experimental: To test if different types of compounds could stimulate agarwood production, ⅝ inch drill wounds were made approximately 5 cm into the main trunk of young plantation trees and different materials used to treat the drill wounds. Chemicals used were from Sigma Chemicals Inc. St. Louis, Mo. or Mallinckrodt Inc. Paris, Ky. One drill wound per tree received no treatment and others received one of the following treatments:
Chitosan—purified chitin approximately 0.2 g of chitin was added per wound
Formic acid—approximately 0.1 g of formic acid was added per wound
Sodium chloride—approximately 0.2 g added per wound
Cellobiose—approximately 0.2 grams added per wound
Lime—approximately 0.1 g calcium carbonate added per wound
Trees were harvested after 12, 18 and 21 months.

[2] = tested on: Aquilaria trees; assay: Scribed drill wounds with Basidiomycota cultures or chemicals in sawdust, Kon Tum and Nui Cam (Example 9); conditions: for effect on area of discoloration and agarwood resin (in words): Example 9 conclusion, sodium bisulfite 1:4, salicylic acid 1:2, ferrous chloride 1:4 in sawdust; for Area of discoloration: after 15 months, mean of two trees, chemicals approx 0.5 g in sterile Aquilaria sawdust
Text: Young trees growing at two sites, in home gardens and on agricultural land (Kon Tum, Vietnam and Nui Cam, Vietnam), received 8 wounds per tree. Drill wounds ⅝ inch diameter were drilled approximately 5 cm into the main trunk of each tree in a spiral fashion separated by approximately 20 cm. All drill wounds were scribed to remove a 5×5 cm area of bark around the wound. Fungal treatments consisted of three different types of Basidiomycota obtained from Aquilaria trees in Vietnam. These isolates were not identified to genus but culture morphology indicated they were different genera. Cultures were grown on sterile rice supplemented with malt extract. Cultures were grown for three weeks before inoculation.
Treatments Included: • 1. Control wound receiving sterile rice • 2. Fungal culture 97-14-5 • 3. Fungal culture 97-13-7 • 4. Fungal culture 97-11-25 • 5. Control wound receiving 5 g sterile Aquilaria sawdust • 6. Approximately 0.5 g of a 1:4 ratio of sodium bisulfite and sterile Aquilaria sawdust • 7. Approximately 0.5 g of a 1:2 ratio of salicylic acid in sterile Aquilaria sawdust • 8. Approximately 0.5 g of a 1:4 ratio of ferrous chloride in sterile Aquilaria sawdust
After 15 months two trees were harvested from each location and brought to the laboratory for analyses. The mean area for each type of wound was calculated.

[3] = tested on: Aquilaria trees; assay: Wound types and treatments on plantation trees, Phu Quoc Island, image analyzer area (Example 8); conditions: for effect on area of discoloration and agarwood resin (in words): Example 8 conclusion; for Area of discoloration/resin: after 15 months, longitudinal plane, mean of 8 wounds, approx 0.3 g of agent mixed with sterile Aquilaria sawdust, drill wound plus 5x5 cm bark removed
Text: Fourteen plantation grown trees on Phu Quoc Island were used to test different treatments. Each tree received 8 wounds that were spiraled up the main trunk of the tree separated by approximately 20 cm. A range of different types of wounds and treatments as well as controls were made on each tree. […] Trees were harvested after 15 months and taken to the laboratory for analyses.
Treatments Included: • 1. A surface wound approximately 5×5 cm was made by cutting the bark and removing the bark tissue to expose the xylem. No drill hole was made. • 3. A ⅝ inch drill wound was made approximately 5 cm into the xylem and a 5×5 cm section of the bark removed around the drill hole and approximately 0.3 g sterile Aquilaria sawdust added to the drill wound. • 4. Same as #3 but with approximately 0.3 g of a 1:1 ratio of ferrous chloride and sterile Aquilaria sawdust added to the drill wound. • 5. Same as #3 with approximately 0.3 g of a 1:2 ratio of NaCl and sterile Aquilaria sawdust added to the drill wound. • 6. Same as #3 but with approximately 0.3 g of a 1:4 ratio of Difco yeast extract and sterile Aquilaria sawdust. • 7. Same as #3 but with approximately 0.3 g of a 1:1 ratio of sodium bisulfite and sterile Aquilaria sawdust. • 8. Same as #3 but with approximately 0.3 g of a 1:2:4 ratio of Difco nutrient broth: Difco malt extract: sterile Aquilaria sawdust.
After 15 months, 8 trees were harvested and brought to the laboratory for analyses. The area of discoloration and resin formation was determined by splitting the tree through the wounded region and area affected measured using an image analyzer. Area (cm^2) was determined for all wounds in the longitudinal plane. Each value is a mean of 8 wounds.

Compound	effect on area of discoloration (in words) [1]	Area of discoloration ([1]; after 12 months)	Area of discoloration ([1]; after 18 months)	Area of discoloration ([1]; after 21 months)	effect on area of discoloration and agarwood resin (in words) [2]	Area of discoloration ([2]; Location Kon Tum) [cm^2]	Area of discoloration ([2]; Location Nui Cam) [cm^2]	effect on area of discoloration and agarwood resin (in words) [3]	Area of discoloration/resin [3] [cm^2]	microscopic observations of cells around treated wounds [1]	agarwood induction versus control wounds (in words) [1]
O=C[C@H](O)[C@@H](O)[C@H](O[C@@H]1O[C@H](CO)[C@@H](O)[C@H](O)[C@H]1O)[C@H](O)CO [Cellobiose]	do not increase the area of discoloration	9.9	20.3	7.4	–	–	–	–	–	–	–
[Cl][Fe][Cl] [Ferrous chloride, ferrous chloride]	–	–	–	–	did not produce large areas of discoloration	18.4	23.3	increase the area of discoloration within the tree and the amount of agarwood resin formed	112.5	–	–
O=CO [Formic acid]	–	28.5	18.6	31.8	–	–	–	–	–	react extensively and phloem cells are filled with resin	induce greater amounts of agarwood than the control wounds
O=C([O-])[O-].[Ca+2] [Lime, calcium carbonate]	do not increase the area of discoloration	10.0	18.7	9.7	–	–	–	–	–	–	–
[Cl-].[Na+] [NaCl, Sodium chloride]	–	49.3	44.7	36.4	–	–	–	increase the area of discoloration within the tree and the amount of agarwood resin formed	48.1	react extensively and phloem cells are filled with resin	induce greater amounts of agarwood than the control wounds
O=C(O)c1ccccc1O [Salicylic acid, salicylic acid]	–	–	–	–	did not produce large areas of discoloration	16.9	25.5	–	–	–	–
O=S([O-])O.[Na+] [Sodium bisulfite, sodium bisulfite]	–	–	–	–	reduced amount of discoloration and agarwood resin	52.3	56.9	increase the area of discoloration within the tree and the amount of agarwood resin formed	182.0	–	–
